Results on 109 compounds are retold here after a melting point compilation (Tetko et al.).

SMILES strings stand for the structures. Where only a bound is given, the exact number is not on record here.

The term melting point denotes the temperature, or range, at which the solid turns liquid. For the compound `O=C1CCC(c2ccccc2)(C2CCN(Cc3ccccc3)CC2)C(=O)N1` (centres undefined), the melting point came out at 156 °C. The result for `O=[N+]([O-])c1ccccc1S(=O)(=O)Cl` reads 67 °C; that for `O=C1OC2(c3ccccc31)c1cc([N+](=O)[O-])c(O)c(Br)c1Oc1c2cc([N+](=O)[O-])c(O)c1Br`, 275 °C.

Turning to `Clc1ncnc2[nH]cnc12`, the melting point was 300 °C. The result for `O=C(O)c1ccc(Br)o1` reads 190 °C.

With `CCOc1cccc2c(=O)c(=O)c12`, the melting point worked out at 128 °C. The result for `CCP(=O)(CC)CC` reads 52 to 53 °C. The result for `Cn1c(/C(C#N)=N/Nc2cccc(O)c2)nc2ccccc21` reads 285 °C; that for `Nc1cc(C(F)(F)F)c(Br)cc1F`, 36 °C.

`O=c1[nH]c2ccc([N+](=O)[O-])cc2c(=O)o1` yielded a melting point of 259 to 263 °C.

Regarding `N#Cc1ccc(C=Cc2ccccc2C=NNc2ccccc2)c([N+](=O)[O-])c1`, the melting point was 182 °C. Next, `CCCC(=O)Oc1c[nH]c2cc(Cl)ccc12`: 98 to 102 °C; `Cc1ccc2c(c1C)CCC1C2CCC2CCCCC21C` (centres undefined): 156 °C. Next, `COc1cc(C)cc(OC)c1O`: 39 °C; `Cc1c(F)c(F)c(COC(=O)C2C(C=C(Cl)C(F)(F)F)C2(C)C)c(F)c1F` (centres undefined): 44.6 °C; `O=C(N[C@@H](Cc1ccccc1Br)C(=O)O)OCC1c2ccccc2-c2ccccc21`: 168 °C. Next, `CCCCCCCCCCCCC(=O)OC`: 6.5 °C.

Compound `NCc1cc(C(F)(F)F)cc(C(F)(F)F)c1` showed a melting point of 57 °C. The result for `NS(=O)(=O)c1ccc(F)c(C(F)(F)F)c1` reads 162 °C. The result for `CN1CCC23c4c5ccc(OCCN6CCOCC6)c4OC2C(O)C=CC3C1C5` (centres undefined) reads 91 °C.

`CCCCCCCC(C)=O` returned a melting point of -7.5 °C. The result for `Cc1nc(-c2ccccc2)c(C)s1` reads 28 °C. Next, `CCOC(=O)C1=C(NC(=O)CCl)Oc2c(c(=O)oc3ccccc23)C1c1ccc(Br)cc1` (centres undefined): 158 °C. Next, `COC(=O)C1=C(C)NC(=O)NC1c1ccc(Cl)cc1` (centres undefined): 172 °C. Compound `CCC1CN2CCC1CC2C(O)c1ccnc2ccc(OCCC(C)C)cc12` (centres undefined) gave a melting point of 152 °C.

Regarding `[O-][N+]1=C(c2ccccn2)/C(=N\O)c2ccccc21`, the melting point is 215 to 217 °C. Next, `Cc1cnc(N)c(C)n1`: 96 °C; `ClCCCOc1ccccc1`: 12 °C; `Cn1cc(C=O)c2ccccc21`: 69 °C.

Regarding `CCN(C(=O)Oc1cccc(NC(=O)OC(C)C)c1)c1ccccc1`, the melting point is 110 °C. Next, `O=S(=O)(Cl)c1ccc2c(c1)OCO2`: 48 to 51 °C. Compound `CCCCCCc1ccc(-c2ccccc2)cc1` came in with a melting point of 30 °C.

Consider `O=[N+]([O-])c1ccc2ncccc2c1`, for which the melting point came to 154 °C. `S=C(SC(=S)N1CCCCC1)N1CCCCC1` showed a melting point of 110 °C. Next, `O=C(C=Cc1ccc(-c2ccc([N+](=O)[O-])cc2)o1)c1ccccc1`: 157 to 158 °C; `Brc1ccc2c(c1)Oc1ccccc1O2`: 90 °C. `Cn1ccc(S(=O)(=O)Cl)n1` returned a melting point of 36 to 39 °C. Next, `O=C(COc1ccc(Cl)cc1)n1c(=O)sc2ccccc21`: 143 °C. The result for `COC(=O)c1cc(OCC(F)(F)F)ccc1OCC(F)(F)F` reads 40 to 41 °C. Next, `CC(=O)NCC1(c2ccccc2)CCN(CCCC(=O)c2ccc(F)cc2)CC1`: 98.5 °C; `CSC(=CC(=C(C#N)C#N)c1ccc(Cl)cc1)SC`: 106 to 110 °C. Consider `CCOC(=O)C(F)(F)F`, for which the melting point is -78 °C. The compound `CC(N)C(C)(C)C` (centres undefined) yielded a melting point of -20 °C. The result for `CCCCC1=NC2(CCCC2)C(=O)N1Cc1ccc(-c2ccccc2-c2nnn[nH]2)cc1` reads 180 °C; that for `Cc1ccc(S(=O)(=O)OCC(C)OS(=O)(=O)c2ccc(C)cc2)cc1` (centres undefined), 68 to 70 °C. The result for `Cc1ccc(F)c(C=O)c1Cl` reads 46 to 50 °C; that for `NC(=S)c1ccc2nonc2c1`, 132 to 135 °C; that for `Clc1nccc2sccc12`, 99 °C.

`CCC(=O)OCN1C(=O)NC(c2ccccc2)(c2ccccc2)C1=O` gave a melting point of 171 °C. The result for `N#Cc1ccc(F)cc1Cl` reads 64 °C. Next, `O=S(=O)(Cl)c1ccc(F)cc1Cl`: 30 °C; `COc1ccc(/N=N/c2sc(/C(C#N)=N/Nc3ccc(F)cc3)nc2C)cc1`: 214 °C. Next, `O=C(O)C=CC(=O)c1ccccc1`: 91 to 96 °C; `Cc1nc(-c2ccc(C(=O)O)cc2)no1`: 262 to 264 °C. In turn, `C#CCCCCCCC` had a melting point of -50 °C.

As for `FC(F)(F)C(Cl)=C(Cl)C(F)(F)F`, the melting point is -67.3 °C. In turn, `Cc1c(O)ncnc1Cl` gave a melting point of 202 °C. The result for `O=c1n(-c2ccccc2)c(=O)n(-c2ccccc2)c(=O)n1-c1ccccc1` reads 285 °C.

Compound `CCCCCCCCCCSCCCCCCCCCC` displayed a melting point of 27 °C. Turning to `O=C(O)c1ccc(OCc2ccccc2)cc1`, the melting point turned out to be 189 °C. Next, `O=C(O)c1ccccc1C(=O)Nc1ccc(S(=O)(=O)N=c2[nH]ccs2)cc1`: 273 °C; `CC1CC(=O)CC2CCC3C4CCC(O)C4(C)CCC3C12C` (centres undefined): 204 °C; `Nc1ccc(Sc2ccc([N+](=O)[O-])cc2)cc1`: 144 °C. The result for `C=C1CC(=CC)C(=O)OC2CCN3CC=C(COC(=O)C1(C)O)C23` (centres undefined) reads 218 °C. The result for `Clc1ccc(Cl)c(-c2nnn[nH]2)c1` reads 157 °C; that for `O=C(O)C(O)C(O)C(O)C(O)C(=O)O` (centres undefined), 230 °C; that for `C=CC(C)(O)CCC=C(C)C` (centres undefined), under 25 °C. `Cc1cc(Cl)cc(Cl)c1CN` registered a melting point of 54 °C. The result for `Cc1cc(C)c(CC(=O)CSC#N)c(C)c1` reads 125 to 126 °C; that for `FC(F)(F)c1cccc(Cl)n1`, 33 to 35 °C. Next, `COC(=O)c1cccoc1=O`: 76 °C. The result for `OCCNc1nccnc1Cl` reads 54 to 58 °C. With `NS(=O)(=O)c1cc(S(=O)(=O)c2cccc(O)c2)cs1`, the melting point came out at 145 °C. The result for `N#Cc1ccc(C(F)(F)F)cc1` reads 38 °C. `CC(C)(C)OC(=O)N1CCN(c2ccc(I)cc2)CC1` returned a melting point of 150 to 151 °C. The result for `Cc1cc(C(=O)O)c(C)n1Cc1cccs1` reads 184 to 187 °C; that for `N=C(N)NC(=N)N`, 136 °C. On to `O=C(O)c1cc2ccsc2s1`, for which the melting point came to 236 °C. As to `Oc1ccc(Br)c(F)c1`, the melting point fell in the range of 71.5 to 72.5 °C. As to `CC(C)[C@H](NC(=O)OCC1c2ccccc2-c2ccccc21)C(=O)Oc1c(F)c(F)c(F)c(F)c1F`, the melting point fell in the range of 121 to 122 °C. Next, `O=C(O)COc1nc(Cl)c(Cl)cc1Cl`: 150 °C; `C(#Cc1ccc(CCc2ccccc2)cc1)c1ccccc1`: 105 °C; `COc1cc(C(=O)c2ccc(Cl)cc2)cc(OC)c1OCCN1CCOCC1`: 91.5 °C.

`CCCCCC(O)CC` (racemic) came in with a melting point of -16 °C. The result for `Cc1ccc(NC(=O)C(C(F)(F)F)C(F)(F)F)cc1` reads 196 °C. Next, `O=c1[nH]n(C2C=CC3C4C=CC(C4)C32)c(=O)n1-c1ccccc1` (centres undefined): 155 °C; `O=C1/C(=N/Nc2ccncc2)C(C(F)(F)F)=NN1c1ccccc1`: 177 °C; `O=C(O)c1cc(Cl)c(Cl)c(Cl)c1Cl`: 194 °C. Next, `CCOC(=O)C(C#N)=c1sc(=C(C#N)C(=O)OCC)s1`: 159 to 162 °C. `O=C(C(=O)c1cccs1)c1cccs1` returned a melting point of 82.5 °C. `COc1ccc(C(C)=O)cc1CCl` gave a melting point of 116 to 118 °C. The result for `NC(=O)c1ccc(C(N)=O)cc1` reads 332 °C; that for `CCC1=C(C)CN(C(=O)NCCc2ccc(S(=O)(=O)NC(=O)NC3CCC(C)CC3)cc2)C1=O` (centres undefined), 207 °C. With `O=C=Nc1ccc(Cl)c([N+](=O)[O-])c1`, the melting point came to 66 °C. Next, `c1ccc(-c2nc3ccccc3nc2-c2ccc3c4c(cccc24)CC3)cc1`: 162 °C.

With `O=CNC(Nc1ccc(Cl)c(Cl)c1)C(Cl)(Cl)Cl` (centres undefined), the melting point worked out at 135 °C. The result for `CCCCCCC#CC(=O)O` reads -8 °C; that for `CC1C2Cc3ccc(O)cc3C1(C)CCN2CC1CC1` (centres undefined), 202 °C.

In turn, `CC(C)(C)OC(=O)N[C@@H](C=O)Cc1ccccc1` came in with a melting point of 85 to 89 °C. Next, `N#CCC(=O)c1cccc(C(F)(F)F)c1`: 61 °C; `O=C(Oc1c(F)c(F)c(F)c(F)c1F)c1cncnc1`: 121 to 124 °C.

Compound `COC(=O)C(C)Oc1ccc(Oc2ccc(Cl)cc2Cl)cc1` (centres undefined) came in with a melting point of 44 °C. The result for `c1ccc2c(c1)cnc1ccccc12` reads 107 °C; that for `COc1ccc(-c2cc3ccccc3cn2)cc1`, 98.5 to 100 °C. Next, `Cn1nc(C(F)(F)F)cc1-c1ccc(S(=O)(=O)Cl)s1`: 68 to 70 °C; `COC(=O)c1sccc1S(=O)(=O)Cl`: 62 to 66 °C; `NC(=S)c1ccc(C(F)(F)F)cc1`: 136 to 137 °C. In turn, `Brc1cc2c(cc1Br)Oc1ccccc1O2` showed a melting point of 158 °C. The result for `COC(=O)c1cc2ccccc2[nH]1` reads 151 to 153 °C.
